Source: article PMC4822798 (Clinical Pharmacology : Advances and Applications, 2016)
Where two headings read alike, the source gives them in different places.

Experiments:
[1] = mean population PK parameter, Japanese patients; cited from earlier work
MRSA infections [2] = conditions: cited from earlier work; for AUC24 value on the third day: ref 12 (Hagihara et al)
MRSA isolates = conditions: all isolates, cited from earlier work
MRSA strains = experiment: Teicoplanin susceptibility testing; format: cell-based, methicillin-resistant Staphylococcus aureus; conditions: Mueller-Hinton agar, E-test, 16–20 hours at 37°C
MRSA infections [3] = experiment: PK/PD analysis: AUC24/MIC ratio versus bacteriological response in patients; format: in vivo, patients (human); conditions: for probability of treatment success: logistic regression, 46 patients
[4] = cited from earlier work

teicoplanin
distribution volume of the central compartment [1]: 10.4 L
transfer rate constant from the central compartment to the peripheral compartment [1]: 0.38 h⁻¹
transfer rate constant from the peripheral compartment to the central compartment [1]: 0.0485 h⁻¹
trough concentrations effective for treating most infections (MRSA infections [2]): > 13 µg/mL
log[Cmax, unbound/MIC] threshold for achieving treatment success (MRSA infections [2]; day 3 of teicoplanin therapy, ref 14 (Ogawa et al)): 0.30
AUC24 value on the third day (MRSA infections [2]; treatment failure group): 652.9 ± 83.4 µg·h/mL
AUC24 value on the third day (MRSA infections [2]; treatment success group): 897.6 ± 71.7 µg·h/mL
MIC (MRSA isolates; ref 12): ≤ 1.0 µg/mL
MIC (MRSA isolates; ref 13): < 2.0 µg/mL
MIC (MRSA strains; 2.2% of the 46 MRSA strains): 0.38 µg/mL
MIC (MRSA strains; 6.5% of the 46 MRSA strains): 0.5 µg/mL
MIC (MRSA strains; 13.0% of the 46 MRSA strains): 1.5 µg/mL
MIC (MRSA strains; 34.8% of the 46 MRSA strains): 1.0 µg/mL
MIC (MRSA strains; 43.5% of the 46 MRSA strains): 0.75 µg/mL
probability of treatment success (MRSA infections [3]; AUC24/MIC ratio of 500 µg·h/mL on day 3): 0.50
probability of treatment success (MRSA infections [3]; AUC24/MIC ratio of 700 µg·h/mL on day 3): 0.72
probability of treatment success (MRSA infections [3]; AUC24/MIC ratio of 900 µg·h/mL on day 3): 0.87
bacteriological response, AUC24/MIC ratios of ≥900 (n=15) versus <900 (n=31) (MRSA infections [3]; Kaplan–Meier curve analysis, P<0.05): significantly stronger bacteriological responses
AUC24/MIC ratio required to ensure bacteriological responses (MRSA infections [3]; patients with MRSA infections): ≥ 900 µg·h/mL

CN[C@H](CC(C)C)C(=O)N[C@H]1C(=O)N[C@@H](CC(N)=O)C(=O)N[C@H]2C(=O)N[C@H]3C(=O)N[C@H](C(=O)N[C@H](C(=O)O)c4cc(O)cc(O)c4-c4cc3ccc4O)[C@H](O)c3ccc(c(Cl)c3)Oc3cc2cc(c3O[C@@H]2O[C@H](CO)[C@@H](O)[C@H](O)[C@H]2O[C@H]2C[C@](C)(N)[C@H](O)[C@H](C)O2)Oc2ccc(cc2Cl)[C@H]1O [vancomycin]
trough concentrations needed to achieve an AUC value of ≥400 [4]: 10 to 20 µg/mL
AUC/MIC ratio associated with clinical and bacteriological responses ([4]; guidelines for therapeutic drug monitoring): ≥ 400
